Source: BindingDB's records for patent US12208088 (Genentech, 2025)

Molecular target: Mitogen-activated protein kinase kinase kinase kinase 1 (Homo sapiens, UniProt Q92918)
Assay: HPK1 Lantha Binding Assay
Description: For the binding assay, 4 ul 2×HPK1 and Eu-anti-GST antibody were added to each well of the assay plate using a Multidrop reagent dispenser. The solutions were incubated in a 23 C incubator for 1 h. To each well of the assay plate was added 4 ul 2× Tracer-222 using a Multidrop reagent dispenser. The solutions were again incubated in a 23 C incubator for 1 h. The results of the assay were read using an Envision plate reader with the following parameters: TR_FRET, 340 ex/615 and 665em; 100 usec Delay; and 200 usec integration.

Sequence of Mitogen-activated protein kinase kinase kinase kinase 1 (Q92918 whole entry): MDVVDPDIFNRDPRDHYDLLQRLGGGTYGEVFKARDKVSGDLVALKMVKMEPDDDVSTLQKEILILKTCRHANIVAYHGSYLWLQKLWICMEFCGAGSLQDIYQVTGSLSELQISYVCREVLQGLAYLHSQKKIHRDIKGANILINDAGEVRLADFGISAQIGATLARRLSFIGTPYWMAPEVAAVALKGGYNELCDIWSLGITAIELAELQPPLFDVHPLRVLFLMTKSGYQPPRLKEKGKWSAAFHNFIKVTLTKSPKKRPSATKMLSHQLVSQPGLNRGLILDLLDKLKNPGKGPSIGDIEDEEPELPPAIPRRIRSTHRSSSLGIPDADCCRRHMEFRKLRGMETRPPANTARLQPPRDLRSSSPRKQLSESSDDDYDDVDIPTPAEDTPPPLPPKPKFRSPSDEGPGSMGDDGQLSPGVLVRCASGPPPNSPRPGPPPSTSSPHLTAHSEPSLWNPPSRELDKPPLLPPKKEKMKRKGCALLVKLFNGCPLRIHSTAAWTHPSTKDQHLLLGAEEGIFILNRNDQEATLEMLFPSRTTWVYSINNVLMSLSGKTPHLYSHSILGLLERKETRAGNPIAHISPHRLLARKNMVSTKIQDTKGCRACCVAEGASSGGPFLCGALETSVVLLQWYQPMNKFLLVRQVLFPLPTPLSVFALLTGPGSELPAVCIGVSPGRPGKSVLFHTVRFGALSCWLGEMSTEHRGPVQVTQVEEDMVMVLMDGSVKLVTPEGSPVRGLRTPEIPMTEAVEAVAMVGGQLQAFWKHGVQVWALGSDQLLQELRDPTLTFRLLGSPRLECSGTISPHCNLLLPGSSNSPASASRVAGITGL

| SMILES | Ki [nM] |
| --- | --- |
| CC1CNC(=O)N1c1c(N)ccc(-c2cnc3c(c2Cl)C2(CC2)CN3)c1F (configuration not stated) [US12208088, Compound 25] | 43.9 |
| CC(=O)Nc1cc(C(=O)N(C)C)cc(-c2cnc3c(c2Cl)C2(CC2)CN3)c1 [US12208088, Compound 33] | 771 |
| CN(CC(C)(C)O)C(=O)c1c(N)ccc(-c2cnc3c(c2Cl)C2(CC2)CN3)c1F [US12208088, Compound 35] | 22.8 |
| O=C1NCCC1c1cccc(-c2cnc3c(c2)C2(CC2)CN3)c1F (configuration not stated) [US12208088, Compound 92] | 28.4 |
| CN(C)C(=O)c1c(N)ccc(-c2cnc3c(c2Cl)C2(CCC(Cn4cncn4)C2)CN3)c1F (configuration not stated) [US12208088, Compound 129] | 23.4 |
| CN(C)C(=O)c1ccc(-c2cnc3c(c2Cl)C2(CC=CC2)CN3)cc1Cl [US12208088, Compound 192] | 163 |
| N#CC1CCCCN1C(=O)c1cccc(-c2cnc3c(c2Cl)C2(CC=CC2)CN3)c1F (configuration not stated) [US12208088, Compound 264] | 11.5 |
